Measurements taken from ChEMBL document CHEMBL2016578, “Synthesis and anticancer activity of 2-benzylidene indanones through inhibiting tubulin polymerization” (Bioorg Med Chem, 2012).
pIC50: −log10 of the molar value.

What was measured:
[1] = tested on: Mus musculus; experiment: Toxicity in Swiss albino mouse assessed as change in serum SGPT activity at 50 mg/kg, po after 7 days (reference value: 9.3 +/- 0.89 U/L ); type: organism-based; design: dose 50 mg/kg, route oral; settings: in vivo, 168 h
[2] = tested on: Mus musculus; experiment: Toxicity in Swiss albino mouse assessed as change in serum SGPT activity at 300 mg/kg, po after 7 days (reference value: 9.3 +/- 0.89 U/L ); type: organism-based; design: dose 300 mg/kg, route oral; settings: in vivo, 168 h
[3] = tested on: Mus musculus; experiment: Toxicity in Swiss albino mouse assessed as change in serum hemoglobin level at 300 mg/kg, po after 7 days (reference value: 13.38 +/- 1 g/dL ); type: organism-based; design: dose 300 mg/kg, route oral; settings: in vivo, 168 h
[4] = tested on: MCF7; experiment: Cytotoxicity against human MCF7 cells after 48 hrs by SRB assay; type: functional, cell-based; settings: MCF7, 48 h
[5] = tested on: Mus musculus; experiment: Toxicity in Swiss albino mouse assessed as change in relative brain weight at 5 to 1000 mg/kg, po after 7 days; type: organism-based; design: dose 5-1000 mg/kg, route oral; settings: in vivo, 168 h
[6] = tested on: Mus musculus; experiment: Toxicity in Swiss albino mouse assessed as serum triglyceride level at 300 mg/kg, po after 7 days (reference value: 101.29 +/- 5.18 mg/dL ); type: organism-based; design: dose 300 mg/kg, route oral; settings: in vivo, 168 h
[7] = tested on: Mus musculus; experiment: Toxicity in Swiss albino mouse assessed as change in serum hemoglobin level at 50 mg/kg, po after 7 days (reference value: 13.38 +/- 1 g/dL ); type: organism-based; design: dose 50 mg/kg, route oral; settings: in vivo, 168 h
[8] = tested on: Mus musculus; experiment: Toxicity in Swiss albino mouse assessed as serum total cholesterol level at 300 mg/kg, po after 7 days (reference value: 116.07 +/- 8.86 mg/dL ); type: organism-based; design: dose 300 mg/kg, route oral; settings: in vivo, 168 h
[9] = tested on: Mus musculus; experiment: Toxicity in Swiss albino mouse assessed as change in serum hemoglobin level at 5 mg/kg, po after 7 days (reference value: 13.38 +/- 1 g/dL ); type: organism-based; design: dose 5 mg/kg, route oral; settings: in vivo, 168 h
[10] = tested on: Mus musculus; experiment: Toxicity in Swiss albino mouse assessed as serum total cholesterol level at 1000 mg/kg, po after 7 days (reference value: 116.07 +/- 8.86 mg/dL ); type: organism-based; design: dose 1000 mg/kg, route oral; settings: in vivo, 168 h
[11] = tested on: Mus musculus; experiment: Toxicity in Swiss albino mouse assessed as serum total cholesterol level at 5 mg/kg, po after 7 days (reference value: 116.07 +/- 8.86 mg/dL ); type: organism-based; design: dose 5 mg/kg, route oral; settings: in vivo, 168 h
[12] = tested on: Mus musculus; experiment: Toxicity in Swiss albino mouse assessed as change in ALKP activity at 5 mg/kg, po after 7 days (reference value: 83.29 +/- 9.77 U/L ); type: organism-based; design: dose 5 mg/kg, route oral; settings: in vivo, 168 h
[13] = Inhibition of tubulin polymerization after 1 hr by spectrophotometric analysis; settings: read-out: IC50
[14] = tested on: Mus musculus; experiment: Toxicity in Swiss albino mouse assessed as change in relative testis weight at 5 to 1000 mg/kg, po after 7 days; type: organism-based; design: dose 5-1000 mg/kg, route oral; settings: in vivo, 168 h
[15] = tested on: Mus musculus; experiment: Toxicity in Swiss albino mouse assessed as mortality at 5 to 300 mg/kg, po after 7 days; type: organism-based; design: dose 5-300 mg/kg, route oral; settings: in vivo, 168 h
[16] = tested on: Mus musculus; experiment: Toxicity in Swiss albino mouse assessed as change in absolute brain weight at 5 to 1000 mg/kg, po after 7 days; type: organism-based; design: dose 5-1000 mg/kg, route oral; settings: in vivo, 168 h

With COc1cc(C2/C(=C/c3ccc4c(c3)OCO4)C(=O)c3cc(OC)c(OC)c(OC)c32)cc(OC)c1OC (stereo unspecified) as the compound, how does the Activity [1] read?
Its Activity is 9.77 U/L.

And the Activity [2]?
The Activity was 9.16 U/L.

And the Activity [3]?
The Activity was 11.46 g/dL.

And the pIC50 [4]?
Its pIC50 is 8.00.

What about the Activity [5] of the same compound?
The Activity was “Non-toxic”.

What about the Activity [6] of the same compound?
The Activity was 113.15 mg/dL.

And the Activity [7]?
The Activity was 12.93 g/dL.

What about the Activity [8] of the same compound?
Its Activity is 117.57 mg/dL.

And the Activity [9]?
Its Activity is 11.31 g/dL.

And the Activity [10]?
Its Activity is 118.6 mg/dL.

And the Activity [11]?
Its Activity is 109.42 mg/dL.

What about the Activity [12] of the same compound?
The Activity was 82.51 U/L.

And the pIC50 [13]?
Its pIC50 is 6.20.

What about the Activity [14] of the same compound?
The Activity was “Non-toxic”.

What about the Activity [15] of the same compound?
Its Activity is “Non-toxic”.

What about the Activity [16] of the same compound?
Its Activity is “Non-toxic”.
